Active and inactive are the calls of the source. The calls are words filed in the database; no cut-off is given here.

Data set [1] can be described thus: Inhibition of recombinant Schistosoma manson carbonic anhydrase pre-incubated with enzyme for 15 mins by phenol red dye based stopped flow CO2 hydration assay. The arrangement: species or system Schistosoma mansoni.
Data set [2] in a line: Selectivity ratio of Ki for inhibition of recombinant human carbonic anhydrase 2 to Ki for inhibition of recombinant Schistosoma manson carbonic anhydrase. Type of data set: toxicity.
In data set [3] the test system is Schistosoma mansoni. Put plainly: Antischistosomal activity against Schistosoma mansoni Puerto-Rican infected in Swiss Webster mouse assessed as worm burden reduction at 50 mg/kg, ip administered at 42, 44 and 46 hrs post infection and measured after 2 weeks. Type of data set: functional, organism-based.
For data set [4], the system named is Schistosoma mansoni. Put plainly: Antischistosomal activity against Schistosoma mansoni Puerto-Rican infected in Swiss Webster mouse assessed as worm burden reduction at 100 mg/kg, ip administered at 42, 44 and 46 hrs post infection and measured after 2 weeks. Type of data set: functional, organism-based.

By Ki is commonly meant a dissociation constant, usually derived from enzyme kinetics or from competition with a known ligand. As to `NS(=O)(=O)c1ccc(NC(=[Se])Nc2ccccc2Cl)cc1`, in data set [1], the inhibition constant (Ki) was 6.8 nM. The “Ratio Ki” value in data set [2] amounted to 0.6.

Take `NS(=O)(=O)c1ccc(NC(=[Se])Nc2ccccc2F)cc1`: the Ki in data set [1] was 5.7 nM. Also, the “Ratio Ki” value in data set [2] came to 1.1.

For the molecule `CC(=O)Nc1nnc(S(N)(=O)=O)s1` [ACETAZOLAMIDE], in data set [1], the Ki amounted to 42.5 nM. The “Ratio Ki” value in data set [2] is listed as 0.3.

Regarding `NS(=O)(=O)c1ccc(NC(=O)Nc2ccc(F)cc2)cc1` [SLC-0111], the result in the data set on Schistosoma mansoni [3] was inactive. In data set [1], the Ki was determined as 54.3 nM. The “Ratio Ki” value in data set [2] is 1.7.

As to `NS(=O)(=O)c1cccc(NC(=[Se])Nc2ccc(F)cc2)c1`, in data set [1], the Ki is 91.4 nM. The “Ratio Ki” value in data set [2] turned out to be 4.2.

`NS(=O)(=O)c1ccc(NC(=[Se])Nc2cccc(C(F)(F)F)c2)cc1`: in data set [1], the Ki was 1.5 nM. Also, the “Ratio Ki” value in data set [2] is on record as 4.1.

On to `NS(=O)(=O)c1ccc(CCNC(=[Se])Nc2ccc(Br)cc2)cc1`, for which the Ki in data set [1] stood at 1.7 nM. Further, the “Ratio Ki” value in data set [2] stood at 1.05.

`NS(=O)(=O)c1ccc(NC(=S)Nc2ccc(F)cc2)cc1`: the Ki in data set [1] is 23.3 nM. In data set [2], the “Ratio Ki” value came out at 0.6.

As to `NS(=O)(=O)c1ccc(CCNC(=S)Nc2ccc(I)cc2)cc1`, the inhibitory constant (Ki) in data set [1] is 37.6 nM. Further, in data set [2], the “Ratio Ki” value stood at 0.2.

Take `NS(=O)(=O)c1ccc(NC(=[Se])Nc2ccccc2)cc1`: the outcome in the data set with Schistosoma mansoni [4] was inactive. For the same molecule, the Ki in data set [1] was 83.7 nM. In addition, in data set [2], the “Ratio Ki” value is reported as 0.6.

Regarding `NS(=O)(=O)c1ccc(CCNC(=[Se])Nc2cccc(C(F)(F)F)c2)cc1`, the Ki in data set [1] came to 4.5 nM. Also, the “Ratio Ki” value in data set [2] amounted to 0.97.

In the case of `NS(=O)(=O)c1ccc(CCNC(=[Se])Nc2ccc(I)cc2)cc1`, the inhibition constant (Ki) in data set [1] came to 4.7 nM. Also, the “Ratio Ki” value in data set [2] was determined as 12.2.

`NS(=O)(=O)c1ccc(CCNC(=[Se])Nc2ccccc2F)cc1`: the Ki in data set [1] stood at 7.9 nM. Besides, the “Ratio Ki” value in data set [2] turned out to be 1.

As to `NS(=O)(=O)c1ccc(CCNC(=[Se])Nc2ccccc2Cl)cc1`, in the data set on Schistosoma mansoni [4], the outcome was inactive. In addition, the Ki in data set [1] stood at 5.8 nM. For the same molecule, the “Ratio Ki” value in data set [2] worked out at 0.6.

For the molecule `NS(=O)(=O)c1ccc(NC(=[Se])Nc2ccc(F)cc2)cc1`, the Ki in data set [1] is 76.8 nM. Further, the “Ratio Ki” value in data set [2] amounted to 0.9.

As to `NS(=O)(=O)c1ccc(CCNC(=[Se])Nc2ccc3ccccc3c2)cc1`, the Ki in data set [1] worked out at 84.9 nM. In addition, in data set [2], the “Ratio Ki” value is 1.1.

For `NS(=O)(=O)c1cccc(NC(=[Se])Nc2ccccc2)c1`, the Ki in data set [1] came out at 426 nM. In data set [2], the “Ratio Ki” value worked out at 0.8.

For the molecule `NS(=O)(=O)c1ccc(CCNC(=O)Nc2ccc(I)cc2)cc1`, in data set [1], the Ki is 13.3 nM. The “Ratio Ki” value in data set [2] is reported as 0.6.

As for `COc1ccccc1NC(=[Se])NCCc1ccc(S(N)(=O)=O)cc1`, in data set [1], the Ki was 6.1 nM. For the same molecule, in data set [2], the “Ratio Ki” value turned out to be 0.7.

For `NS(=O)(=O)c1ccc(CCNC(=[Se])Nc2ccccc2)cc1`, the inhibitory constant (Ki) in data set [1] is 3.2 nM. The “Ratio Ki” value in data set [2] is listed as 1.7.

Source of the values: ChEMBL document CHEMBL5034017, “Structural Insights into Schistosoma mansoni Carbonic Anhydrase (SmCA) Inhibition by Selenoureido-Substituted Benzenesulfonamides” (J Med Chem, 2021).
